Test results published in patent US9295638B2, “Prevention and treatment of cardiovascular diseases using systems and methods for transdermal nitric oxide delivery” (priority 2012, dated 2016).

Experiments:
[1] = system: capillary circulation of the skin; experiment: Laser Doppler circulation in five human subjects (Example 8); assay type: in vivo; conditions: positive control formulation containing 0.1% methyl nicotinate
Excerpt: This example illustrates delivery of nitric oxide formulations to five human subjects, using procedures and formulations similar to those discussed in Example 6. Each person served as their own control for the testing. A Moor Instruments Laser Doppler was used to determine circulation. […] The formulations used produce positive, almost immediate results when applied to the skin which, in these studies, was manifested by vasodilatation of the cutaneous vascular system.
For each subject, the following creams were applied: a negative control formulation (containing no NO), 0.010 gram of a 10,000 ppm NO formulation, 0.020 gram of a 10,000 ppm NO formulation, and a positive control formulation containing 0.1% methyl nicotinate. The formulations were prepared using procedures similar to those discussed in Example 1.

[2] = system: micro-capillary blood flow to skin; experiment: Laser Doppler capillary blood flow in humans, 10,000 ppm NO in closed chamber (Example 6); assay type: in vivo; conditions: applied to the skin at 1/10% in alcohol
Excerpt: The formulation used in these studies contained nitric oxide dispersed in a lipid matrix. […] Nitric oxide is a very rapid acting molecule, and these studies used a system that employed laser Doppler with a covered chamber. The formulation was placed into the chamber and then attached to the skin by an adhesive layer on the covering. This provided a stable measuring device as determined by multiple normal evaluations of the capillary blood flow without treatment of nitric oxide.
A known positive control, methyl nicotinate, was applied to the skin at a concentration of 1/10% in alcohol. […] The vascular dynamics are such that when the blood vessels dilate physical parameters follow Bernoulli's law. This states that as one increases the diameter of a tube containing a liquid to flow will increase but the pressure and the speed of the liquid will decrease. The laser Doppler device accurately measured these parameters.
The test product was labeled as 10,000 ppm NO (nitric oxide). The study participants had 100 mg of the test product applied in a closed Hilltop chamber on the forearm. […]
A Moor Instruments DRT4 Laser Doppler Blood Flow Monitor (Devon, England) was used in these studies. The laser Doppler technique measured blood flow in the microcapillaries of the skin that are close to the skin surface and the blood flow in underlying arterioles and venules that help to regulate skin temperature. […]

[3] = Nitric oxide absorption by carriers (weight gain on bubbling NO gas); assay type: physicochemical; conditions: NO gas bubbled 40 hr, 25 °C
Procedure: This example illustrates one technique for preparing a composition in accordance with one embodiment of the invention. An accurate amount of a carrier (HNC 167-62) (see below) was introduced into a system. The carrier weight used in these experiments was approximately 250 g and the vessel size was 500 ml. The vessel was equipped with a mechanical stirrer, gas inlet, and gas outlet and was previously purged with argon for about an hour. The temperature of the carrier was kept at about 25-30° C. NO gas regulated at 5 psi (1 psi is about 6,900 Pa) and was then introduced at a controlled rate of about 1 bubble/s with continuous stirring. […] After 6 hours, the weight of the carrier had increased by 0.15%, by 12 hours by 0.25%, and by 24 hours by 0.56%. These increases in weight were believed to be significant considering the relative small molecular weight of NO versus the carrier. […] The carrier also can solidify upon cooling if the carrier is initially a solid at lower temperature.
Each carrier was taken in a 500 mL three necked flask equipped with a mechanical stirrer, gas inlet and a gas outlet. The system was purged with argon for one hour at room temperature (25° C.). Then nitric oxide gas was bubbled into the system. Then, nitric oxide gas was bubbled through carrier for stipulated amount of time. The changes in weight and color were noted. […]

SMILES: COC(=O)c1cccnc1 [methyl nicotinate]
- vasodilatation [1]: vasodilatation was observed
- laser Doppler response of positive control [2]: rapid response typical of the vasodilator

SMILES: OCCCO [1,3-Propanediol, 1,3-propanediol]
- % Wt. gain [3]: 0.09%
